Publication PMC5507300, “Antibacterial small molecules targeting the conserved TOPRIM domain of DNA gyrase” (PLoS ONE, 2017)
≈ marks a conversion by molar mass, not a printed value. Where “and” joins values, the source holds several entries; their conditions need not be identical. Identical values can stand only once. Like-named read-outs stand apart in the source and are kept apart here.

Experiments:
Type in all cases: cell-based
E. coli CIP101 GyrA D87N = experiment: microbe, parasite or virus in culture; conditions: Escherichia coli
Procedure: (§1) Compound doubling dilutions were prepared in 100% DMSO (Sigma Aldrich) and 2 μL of each dilution was transferred to a 96-well plate with lid (Thermo Scientific). Inoculum for all MIC testing was prepared using the BBL Prompt Inoculation System (Becton Dickinson, Franklin Lakes, NJ USA) as described by the manufacturer to produce a suspension of cells at approximately 1.5 x 10^8 colony forming units (CFU)/mL [34–36] and a further dilution (1:1000) was made into cation adjusted Mueller-Hinton broth (CAMH broth, Becton-Dickinson). One hundred μL of this inoculum were then transferred to each well of the 96-well plate containing diluted compound (above). Plates were covered and incubated overnight (18 hrs.) at 37°C.

[1] = system: E. coli GYR108 GyrB L470I/V467L; experiment: microbe, parasite or virus in culture; conditions: Escherichia coli
Source text: (§2) E. coli HS151 (ΔtolC) has been described previously. […] E. coli BW25113 and the Keio gene deletion collection based on BW25113 [25] were obtained from Thermo Fisher Scientific (Waltham, MA) and described in [26]. The plasmid-borne FQ resistance determinant, qnrVC3 [27], was kindly provided by D. Hooper (Massachusetts General Hospital). […] MB2884 (E. coli) and CL15245 (K. pneumoniae) are clinical isolates from the Merck & Co., Inc., Kenilworth, NJ, USA, strain collection. S. aureus COL is a methicillin-resistant clinical isolate.
as §1
(§3) After the agar solidified, 5 μL of a saturated bacterial culture, grown in CAMH broth, were dispensed on the agar surface and allowed to dry at room temperature. […] After the surface dried at room temperature the plate was incubated at 37°C overnight. […] Genomic DNA from the parent strain (E. coli HS151) and purified (restreaked) resistant isolates was obtained with a GeneJET genomic DNA purification kit according to the manufacturer’s instructions (Fisher Scientific). Assembled whole genome mutant sequences were then compared to the parent strain and polymorphisms were identified as described.

[2] = system: E. coli GYR102 GyrB E466EV; experiment: microbe, parasite or virus in culture; conditions: Escherichia coli
Source text: as §2, §1, §3

[3] = system: E. coli GYR105 GyrB T469K; experiment: microbe, parasite or virus in culture; conditions: Escherichia coli
Source text: as §2, §1, §3

[4] = system: E. coli GYR101 GyrB F513L; experiment: microbe, parasite or virus in culture; conditions: Escherichia coli
Source text: as §2, §1, §3

[5] = system: E. coli GYR104 GyrB L470I; experiment: microbe, parasite or virus in culture; conditions: Escherichia coli
Source text: as §2, §1, §3

[6] = system: E. coli GYR106 GyrB F513L/A468V; experiment: microbe, parasite or virus in culture; conditions: Escherichia coli
Source text: as §2, §1, §3

[7] = system: E. coli GYR107 GyrB F513L/L422V; experiment: microbe, parasite or virus in culture; conditions: Escherichia coli
Source text: as §2, §1, §3

[8] = system: K. pneumoniae CL15245 (clinical isolate); experiment: Broth microdilution MIC, K. pneumoniae CL15245; conditions: Klebsiella pneumoniae
Source text: as §2, §1

[9] = system: E. coli GYR103 GyrB L446Q; experiment: microbe, parasite or virus in culture; conditions: Escherichia coli
Source text: (§4) E. coli HS151 (ΔtolC) has been described previously. Gyrase inhibitor-resistant isolates (GYR101-108) were derived by selection for spontaneous resistance to MRL-770 or MRL-423 (Fig 1) in E. coli HS151 as described below. E. coli BW25113 and the Keio gene deletion collection based on BW25113 [25] were obtained from Thermo Fisher Scientific (Waltham, MA) and described in [26]. The plasmid-borne FQ resistance determinant, qnrVC3 [27], was kindly provided by D. Hooper (Massachusetts General Hospital). MB9796 (A. baumannii) is a derivative of MB9797 (ATCC19606) lacking lipopolysaccharide. The efflux-defective P. aeruginosa strain MB5890 (CB398) is a derivative of MB5919 (PAO1). MB2884 (E. coli) and CL15245 (K. pneumoniae) are clinical isolates from the Merck & Co., Inc., Kenilworth, NJ, USA, strain collection. S. aureus COL is a methicillin-resistant clinical isolate.
as §1
After the agar solidified, 5 μL of a saturated bacterial culture, grown in CAMH broth, were dispensed on the agar surface and allowed to dry at room temperature. […] To select for resistance, a 100 mm petri dish was filled with 25 mL CAMH agar containing 8 μg/mL MRL-770 or 0.5 μg/mL MRL-423 (Fig 1). The cells in 1 mL of an overnight culture of E. coli HS151 (~10^9 CFU/mL) were concentrated by centrifugation and spread onto the surface of an MRL-770 or MRL-423 containing plate. After the surface dried at room temperature the plate was incubated at 37°C overnight. Any colonies that arose were counted and an approximate frequency of resistance was calculated after confirming resistance by restreaking on media containg compound as well as measuring MICs (see Results). Genomic DNA from the parent strain (E. coli HS151) and purified (restreaked) resistant isolates was obtained with a GeneJET genomic DNA purification kit according to the manufacturer’s instructions (Fisher Scientific). Assembled whole genome mutant sequences were then compared to the parent strain and polymorphisms were identified as described.

[10] = system: P. aeruginosa(effluxΔ) MB5890; experiment: microbe, parasite or virus in culture; conditions: Pseudomonas aeruginosa
Source text: as §2, §1

E. coli HS151 (ΔtolC) = experiment: microbe, parasite or virus in culture; conditions: Escherichia coli
Source text: as §2, §1

[11] = system: A. baumannii ΔlpxC MB9796; experiment: Broth microdilution MIC, A. baumannii MB9796; conditions: Acinetobacter baumannii
Source text: as §4, §1

[12] = system: E. coli MB2884 (clinical isolate); experiment: Broth microdilution MIC, E. coli MB2884; conditions: Escherichia coli
Source text: as §2, §1

[13] = system: A. baumanii MB9797 (ATCC19606); experiment: Broth microdilution MIC, A. baumannii MB9797; conditions: Acinetobacter baumannii
Source text: as §4, §1

[14] = system: P. aeruginosa MB5919 (PAO1); experiment: Broth microdilution MIC, P. aeruginosa MB5919; conditions: Pseudomonas aeruginosa
Source text: as §2, §1

S. aureus (MRSA) COL = experiment: Broth microdilution MIC, S. aureus COL; conditions: Staphylococcus aureus, MRSA
Source text: as §4, §1

HeLa Cell = experiment: HeLa cell cytotoxicity; conditions: for EC50: Homo sapiens, HeLa, Average value (n = 2), cytotoxicity; for Fold above MIC: HeLa EC50 relative to MIC for E. coli HS151
[15] = Table 2, HS151, GyrB mutation none
[16] = read-out: E. coli HS151 MIC, S1 Table

| Structure (SMILES) | MIC (E. coli CIP101 GyrA D87N) [µg/mL] | MIC [1] [µg/mL] | MIC [2] [µg/mL] | MIC [3] [µg/mL] | MIC [4] [µg/mL] | MIC [5] [µg/mL] | MIC [6] [µg/mL] | MIC [7] [µg/mL] | MIC [8] [µg/mL] | MIC [9] [µg/mL] | MIC [10] [µg/mL] | MIC (E. coli HS151 (ΔtolC); Table 1, HS151 E. coli ΔtolC) [µg/mL] | MIC (E. coli HS151 (ΔtolC); [15]) [µg/mL] | MIC (E. coli HS151 (ΔtolC); [16]) [µM] | MIC [11] [µg/mL] | MIC [12] [µg/mL] | MIC [13] [µg/mL] | MIC [14] [µg/mL] | MIC (S. aureus (MRSA) COL) [µg/mL] | EC50 (HeLa Cell) [µM] | further results |
| --- | --- | --- | --- | --- | --- | --- | --- | --- | --- | --- | --- | --- | --- | --- | --- | --- | --- | --- | --- | --- | --- |
| Cn1ncc2cc(-c3cnnn3C3CCN(C(=O)Nc4cc(Cl)cc(Cl)c4)CC3)ccc21 [MRL-423] | 0.25 (≈ 0.532 µM) | > 64 | > 64 | 1 (≈ 2.13 µM) | 2 (≈ 4.25 µM) | 1 (≈ 2.13 µM) | > 64 | > 64 | > 64 | 0.5 (≈ 1.06 µM) | 1 (≈ 2.13 µM) | 0.25 | 0.25 | 0.53 | 0.5 (≈ 1.06 µM) | > 64 | > 64 | > 64 | > 64 | 27.1 | MIC (E. coli HS151 (ΔtolC); Table 3, HS151): 0.25 µg/mL |
| Cn1ncc2cc(-c3nnnn3C3CCN(C(=O)Nc4ccc(Cl)c(Cl)c4)CC3)ccc21 [MRL-1082] | 0.125 (≈ 0.265 µM) | 2 (≈ 4.24 µM) | 8 (≈ 17 µM) | 0.25 (≈ 0.53 µM) | > 64 | 0.25 (≈ 0.53 µM) | > 64 | > 64 | > 64 | 0.0625 (≈ 0.133 µM) | 0.25 (≈ 0.53 µM) | 0.0625 | 0.0625 | 0.13 | 0.5 (≈ 1.06 µM) | > 64 | > 64 | > 64 | > 64 | 18.2 | MIC (E. coli HS151 (ΔtolC); Fig 4 legend, E. coli HS151): 0.0625 µg/mL; Fold above MIC (HeLa Cell): 140 fold |
| COc1ccc(C)cc1NC(=O)N1CCC(n2nncc2-c2ccc3c(cnn3C)c2)CC1 [MRL-770] | 2 (≈ 4.49 µM) | > 64 | > 64 | 1 (≈ 2.24 µM) | > 64 | > 64 | > 64 | > 64 | > 64 | > 64 | 4 (≈ 8.98 µM) | 2 | 2 | 4.5 | 4 (≈ 8.98 µM) | > 64 | > 64 | > 64 | > 64 | > 100 | MIC (E. coli HS151 (ΔtolC); read-out: minimum inhibitory concentration (MIC), quoted in text with macromolecule labeling in E. coli JL553, strain not named at place, value equals HS151): 4.5 µM and 2 µg/mL; Fold above MIC (HeLa Cell): > 22 fold |
